Assay results published in ChEMBL document CHEMBL6083192, “Discovery of 1,2,4-Triazole-3-thione Derivatives as Potent and Selective DCN1 Inhibitors for Pathological Cardiac Fibrosis and Remodeling” (J Med Chem, 2024).

Key:
[1] = Inhibition of GST-tagged DCN4 (unknown origin)/acetylated-biotin tagged UBC12 (unknown origin) protein-protein interaction assessed as inhibition constant incubated for 30 mins by HTRF assay
[2] = Inhibition of GST-tagged DCN5 (unknown origin)/acetylated-biotin tagged UBC12 (unknown origin) protein-protein interaction assessed as inhibition constant incubated for 30 mins by HTRF assay
[3] = Inhibition of GST-tagged DCN2 (unknown origin)/acetylated-biotin tagged UBC12 (unknown origin) protein-protein interaction assessed as inhibition constant incubated for 30 mins by HTRF assay
[4] = Inhibition of GST-tagged DCN3 (unknown origin)/acetylated-biotin tagged UBC12 (unknown origin) protein-protein interaction assessed as inhibition constant incubated for 30 mins by HTRF assay
DCN1-like protein 1 = DCN1-like protein 1 (Homo sapiens, UniProt Q96GG9); assay: Inhibition of DCN1 (unknown origin) assessed as inhibition constant
[5] = target: DCN1-like protein 1/NEDD8-conjugating enzyme Ubc12 (Homo sapiens, UniProt Q96GG9); assay: Inhibition of GST-tagged DCN1 (unknown origin)/acetylated-biotin tagged UBC12 (unknown origin) protein-protein interaction incubated for 30 mins by HTRF assay
[6] = Hepatotoxicity in human L02 cells assessed as reduction in cell viability by MTT assay

Sequence of DCN1-like protein 1/NEDD8-conjugating enzyme Ubc12 (Q96GG9 whole entry): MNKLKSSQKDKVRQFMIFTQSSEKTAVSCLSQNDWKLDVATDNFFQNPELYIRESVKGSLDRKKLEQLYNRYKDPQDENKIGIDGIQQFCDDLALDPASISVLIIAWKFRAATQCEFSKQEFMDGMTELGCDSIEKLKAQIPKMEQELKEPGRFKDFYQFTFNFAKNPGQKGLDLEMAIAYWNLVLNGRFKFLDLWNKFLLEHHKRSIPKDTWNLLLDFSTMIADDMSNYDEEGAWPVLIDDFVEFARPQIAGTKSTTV
Sequence of DCN1-like protein 1/NEDD8-conjugating enzyme Ubc12 (P61081 whole entry, further chain): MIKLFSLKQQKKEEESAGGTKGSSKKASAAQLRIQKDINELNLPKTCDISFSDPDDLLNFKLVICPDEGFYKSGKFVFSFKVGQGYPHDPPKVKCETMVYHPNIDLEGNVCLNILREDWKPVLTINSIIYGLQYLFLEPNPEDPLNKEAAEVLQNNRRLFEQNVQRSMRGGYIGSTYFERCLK
Sequence of DCN1-like protein 1 (Q96GG9 whole entry): as the sequence (Q96GG9 whole entry) above

Compound `C#CCSc1nc(Sc2nccs2)c(C#N)c(-c2ccc(C)cc2)n1` has a Ki [1] of 0.81 µM, a Ki [2] of 2.14 µM and a Ki [3] of 0.0662 µM. The Ki [4] was 0.592 µM.
In the case of `COc1cc(-c2nc(SCc3ccc(Cl)cc3)nc(Sc3nnnn3C)c2C#N)cc(OC)c1OC`, the Ki [1] is reported as > 20 µM, the Ki [2] is reported as > 20 µM and the Ki [3] is reported as 0.0188 µM. It also gave a Ki [4] of 0.385 µM.
For `C=C(CN(C)C)C(=O)NC[C@@H](NC(=O)[C@H](Cc1nc2ccc(C(C)C)cc2s1)NC(=O)CC)C1CCCCC1`, the Ki (DCN1-like protein 1) was < 0.001 µM.
With `COc1ccc(-c2n[nH]c(=S)n2CCC(=O)Nc2ccc(OC)cc2OC)cc1` the IC50 [5] was 0.84 µM.
With `O=C(CCn1c(-c2ccccc2)n[nH]c1=S)Nc1cccc(C(F)(F)F)c1` the IC50 [5] was 0.0153 µM and the IC50 [6] was > 100 µg/mL.
`CC(C)(C)c1ccc(O)c(NC(=O)CCn2c(-c3ccc(Cl)cc3)n[nH]c2=S)c1` gave an IC50 [5] of 0.195 µM.
For `O=C(CCn1c(SCC(=O)Nc2ccccc2)nnc1-c1ccc(Cl)cc1)Nc1cccc(C(F)(F)F)c1`, the IC50 [5] was > 20 µM.
`O=C(CCn1c(-c2ccc(Br)cc2)n[nH]c1=S)Nc1cccc(C(F)(F)F)c1` gave an IC50 [5] of 0.0249 µM.
`O=C(CCn1c(-c2ccc(Cl)cc2)n[nH]c1=O)Nc1cccc(C(F)(F)F)c1` gave an IC50 [5] of 7.58 µM.
Compound `O=C(CCn1c(-c2ccc(Cl)cc2)n[nH]c1=S)Nc1cccc(Br)c1` has an IC50 [5] of 0.0222 µM.
`O=C(CCn1c(-c2ccc(O)cc2)n[nH]c1=S)Nc1ccccc1C(F)(F)F` showed an IC50 [5] of 0.1 µM.
`O=C(CCn1c(-c2ccc(Cl)cc2)n[nH]c1=S)Nc1ccc(Br)cc1` gave an IC50 [5] of 0.0256 µM.
Compound `O=C(CCn1cnnc1-c1ccc(Cl)cc1)Nc1cccc(C(F)(F)F)c1` has an IC50 [5] of 15.8 µM.
`O=C(CCCn1c(-c2ccc(Cl)cc2)n[nH]c1=S)Nc1cccc(C(F)(F)F)c1` showed an IC50 [5] of 0.0452 µM.
`O=C(CCn1c(-c2ccccc2Cl)n[nH]c1=S)Nc1cccc(C(F)(F)F)c1` gave an IC50 [5] of 0.0288 µM.
Compound `O=C(CCn1c(-c2ccc(Cl)cc2)n[nH]c1=S)Nc1cc(-c2ccccc2)ccc1O` has an IC50 [5] of 0.33 µM.
For `Cc1cccc2[nH]c(CSc3nnc(-c4ccc(Cl)cc4)n3CCC(=O)Nc3cccc(C(F)(F)F)c3)nc12`, the IC50 [5] was 7.11 µM.
With `O=C(CCn1c(-c2ccc(Cl)cc2)n[nH]c1=S)Nc1ccc(F)cc1` the IC50 [5] was 0.13 µM.
`O=C(CCn1c(-c2ccncc2)n[nH]c1=S)Nc1cccc(C(F)(F)F)c1` showed an IC50 [5] of 0.221 µM.
With `COc1ccc(CNC(=O)CCn2c(-c3ccc(OC)cc3)n[nH]c2=S)cc1` the IC50 [5] was > 20 µM.
In the case of `COc1ccc(NC(=O)CCn2c(-c3ccc(Cl)cc3)n[nH]c2=S)cc1`, the IC50 [5] is reported as 0.0909 µM.
With `O=C(CSc1nnc(-c2ccc(Cl)cc2)n1CCC(=O)Nc1cccc(C(F)(F)F)c1)NC(=O)Nc1ccccc1` the IC50 [5] was > 20 µM.
`COc1ccc(-c2n[nH]c(=S)n2CCC(=O)Nc2cc(C)ccc2O)cc1` gave an IC50 [5] of 1.46 µM.
Compound `COc1cccc(NC(=O)CCn2c(-c3ccc(Cl)cc3)n[nH]c2=S)c1` has an IC50 [5] of 0.0776 µM.
For `O=C(CCn1c(-c2ccc(Cl)cc2)n[nH]c1=S)NCc1ccoc1`, the IC50 [5] was > 20 µM.
In the case of `O=C(CCn1c(-c2ccc(Cl)cc2)n[nH]c1=S)Nc1ccc(O)cc1`, the IC50 [5] is reported as > 20 µM.
Work on `Cc1ccc(O)c(NC(=O)CCn2c(-c3ccc(Cl)cc3)n[nH]c2=S)c1` yielded an IC50 [5] of 0.65 µM.
With `COc1ccc(-c2n[nH]c(=S)n2CCC(=O)Nc2cc(C#N)[nH]n2)cc1` the IC50 [5] was > 20 µM.
Work on `O=C(CCn1c(-c2ccc([N+](=O)[O-])cc2)n[nH]c1=S)Nc1cccc(C(F)(F)F)c1` yielded an IC50 [5] of 0.0462 µM.
For `C#CCNC(=O)CCn1c(-c2ccc(OC)cc2)n[nH]c1=S`, the IC50 [5] was > 20 µM.
`O=C(CCn1c(-c2ccc(Cl)cc2)n[nH]c1=S)NCCc1c[nH]c2ccccc12` gave an IC50 [5] of 2.17 µM.
Compound `CSc1nnc(-c2ccc(Cl)cc2)n1CCC(=O)Nc1cccc(C(F)(F)F)c1` has an IC50 [5] of 1.63 µM.
Compound `COc1ccc(-c2n[nH]c(=S)n2CCC(=O)Nc2ccc(Br)cc2O)cc1` has an IC50 [5] of 0.209 µM.
In the case of `N#Cc1cc(NC(=O)CCn2c(-c3ccc(Cl)cc3)n[nH]c2=S)n[nH]1`, the IC50 [5] is reported as > 20 µM.
`O=C(CCn1c(-c2ccc(Cl)cc2Br)n[nH]c1=S)Nc1cccc(C(F)(F)F)c1` gave an IC50 [5] of 0.00541 µM.
With `COc1ccc(CNC(=O)CCn2c(-c3ccc(Cl)cc3)n[nH]c2=S)cc1` the IC50 [5] was > 20 µM.
In the case of `COc1ccc(-c2n[nH]c(=S)n2CCC(=O)Nc2cccc(C(F)(F)F)c2)cc1`, the IC50 [5] is reported as 0.0141 µM and the IC50 [6] is reported as > 100 µg/mL.
With `COc1ccc(-c2n[nH]c(=S)n2CCC(=O)NCCc2c[nH]c3ccccc23)cc1` the IC50 [5] was 2.28 µM.
For `O=C(CCn1c(-c2ccc(O)cc2)n[nH]c1=S)Nc1ccc(C(F)(F)F)cc1`, the IC50 [5] was 0.0106 µM and the IC50 [6] was > 100 µg/mL.
With `O=C(CCn1c(-c2ccc(F)cc2)n[nH]c1=S)Nc1cccc(C(F)(F)F)c1` the IC50 [5] was 0.0189 µM and the IC50 [6] was > 100 µg/mL.
For `CC(C)c1cccc(NC(=O)CCn2c(-c3ccc(Cl)cc3)n[nH]c2=S)c1`, the IC50 [5] was 0.0157 µM and the IC50 [6] was > 100 µg/mL.
With `C#CCNC(=O)CCn1c(-c2ccc(Cl)cc2)n[nH]c1=S` the IC50 [5] was > 20 µM.
For `COc1ccc(CSc2nnc(-c3ccc(Cl)cc3)n2CCC(=O)Nc2cccc(C(F)(F)F)c2)cc1`, the IC50 [5] was 4.11 µM.
Compound `Cc1ccc(NC(=O)CCn2c(-c3ccc(Cl)cc3)n[nH]c2=S)cc1` has an IC50 [5] of 0.0505 µM.
For `CCCCc1ccc(NC(=O)CCn2c(-c3ccc(Cl)cc3)n[nH]c2=S)cc1`, the IC50 [5] was 0.0123 µM and the IC50 [6] was > 100 µg/mL.
Compound `O=C(CCn1c(-c2ccc(Cl)cc2)n[nH]c1=S)Nc1ccc(Cl)cc1` has an IC50 [5] of 0.0694 µM.
Compound `O=C(CCn1c(-c2ccc(O)cc2)n[nH]c1=S)NCc1cccc(C(F)(F)F)c1` has an IC50 [5] of 0.0431 µM.
For `O=C(CCn1c(-c2c[nH]c3ccccc23)n[nH]c1=S)Nc1cccc(C(F)(F)F)c1`, the IC50 [5] was 0.00939 µM and the IC50 [6] was > 100 µg/mL.
For `COc1ccc(-c2n[nH]c(=S)n2CCC(=O)Nc2cc(C(C)(C)C)ccc2O)cc1`, the IC50 [5] was 2.32 µM.
In the case of `CC(C)(C)c1ccc(NC(=O)CCn2c(-c3ccc(Cl)cc3)n[nH]c2=S)cc1`, the IC50 [5] is reported as 0.00877 µM and the IC50 [6] is reported as > 100 µg/mL.
With `CC(C)(C)c1ccc(-c2n[nH]c(=S)n2CCC(=O)Nc2cccc(C(F)(F)F)c2)cc1` the IC50 [5] was 0.00785 µM.
Work on `O=C(Cn1c(-c2ccc(Cl)cc2)n[nH]c1=S)Nc1cccc(C(F)(F)F)c1` yielded an IC50 [5] of 0.0274 µM.
In the case of `CC(C)c1ccc(NC(=O)CCn2c(-c3ccc(Cl)cc3)n[nH]c2=S)cc1`, the IC50 [5] is reported as 0.0128 µM and the IC50 [6] is reported as > 100 µg/mL.
Work on `O=C(CCn1c(-c2ccc(Cl)cc2)n[nH]c1=S)Nc1ccccc1` yielded an IC50 [5] of 0.545 µM.
`CCSc1nnc(-c2ccc(Cl)cc2)n1CCC(=O)Nc1cccc(C(F)(F)F)c1` showed an IC50 [5] of 2.2 µM.
With `COc1ccc(-c2n[nH]c(=S)n2CCC(=O)NCc2ccoc2)cc1` the IC50 [5] was > 20 µM.
In the case of `COc1ccc(-c2n[nH]c(=S)n2CCC(=O)Nc2cc(-c3ccccc3)ccc2O)cc1`, the IC50 [5] is reported as 1.11 µM.
In the case of `COc1ccccc1NC(=O)CCn1c(-c2ccc(Cl)cc2)n[nH]c1=S`, the IC50 [5] is reported as 0.884 µM.
For `O=C(CCn1c(-c2cccc(Cl)c2)n[nH]c1=S)Nc1cccc(C(F)(F)F)c1`, the IC50 [5] was 0.0199 µM and the IC50 [6] was > 100 µg/mL.
In the case of `Cc1ccc(-c2n[nH]c(=S)n2CCC(=O)Nc2cccc(C(F)(F)F)c2)cc1`, the IC50 [5] is reported as 0.00942 µM and the IC50 [6] is reported as > 100 µg/mL.
